Source: PubChem BioAssay (NCI)
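Dose response: 5 concentrations. Exposure: 48 h. Format: 96-well plates. Endpoint: linear interpolation; highest concentration if not reached. TGI denotes the concentration required for complete inhibition of growth.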

Assays:
Test in all cases: DTP human tumour cell line panel, 48 h
[1] = system: 786-0 renal
[2] = system: A498 renal
[3] = system: A549 NSCLC
[4] = system: ACHN renal
[5] = system: BT-549 breast
[6] = system: CAKI-1 renal
[7] = system: CCRF-CEM leukemia
[8] = system: COLO 205 colon
[9] = system: DU-145 prostate
[10] = system: EKVX NSCLC
[11] = system: HCC-2998 colon
[12] = system: HCT-116 colon
[13] = system: HCT-15 colon
[14] = system: HL-60(TB) leukemia
[15] = system: HOP-62 NSCLC
[16] = system: HOP-92 NSCLC
[17] = system: HS 578T breast
[18] = system: HT29 colon
[19] = system: IGROV1 ovarian
[20] = system: K-562 leukemia
[21] = system: KM12 colon
[22] = system: LOX IMVI melanoma
[23] = system: M14 melanoma
[24] = system: MALME-3M melanoma
[25] = system: MCF7 breast
[26] = system: MDA-MB-231 breast
[27] = system: MDA-MB-435
[28] = system: MDA-N
[29] = system: MOLT-4 leukemia
[30] = system: NCI-H226 lung
[31] = system: NCI-H23 lung
[32] = system: NCI-H460 lung
[33] = system: NCI-H522 lung
[34] = system: NCI/ADR-RES ovarian
[35] = system: OVCAR-3 ovarian
[36] = system: OVCAR-4 ovarian
[37] = system: OVCAR-5 ovarian
[38] = system: OVCAR-8 ovarian
[39] = system: PC-3 prostate
[40] = system: RXF 393 renal
[41] = system: SF-268 CNS
[42] = system: SF-295 CNS
[43] = system: SK-MEL-28 melanoma
[44] = system: SK-MEL-5 melanoma
[45] = system: SK-OV-3 ovarian
[46] = system: SN12C renal
[47] = system: SNB-19 CNS
[48] = system: SNB-75 CNS
[49] = system: SR leukemia
[50] = system: SW-620 colon
[51] = system: T-47D breast
[52] = system: TK-10 renal
[53] = system: U251 CNS
[54] = system: UACC-257 melanoma
[55] = system: UACC-62 melanoma
[56] = system: UO-31 renal

`c1ccc(C(Oc2noc3ccccc23)c2ccccc2)cc1` was tested, and the TGI [1] was > 100 µM, the TGI [2] was > 100 µM and the TGI [3] was > 100 µM. For the same compound, the TGI [4] was > 100 µM, the TGI [5] was 96.4 µM and the TGI [6] was > 100 µM. It also gave a TGI [7] of 49.7 µM, a TGI [8] of 37 µM and a TGI [9] of 78.6 µM. For the same compound, the TGI [10] was > 100 µM, the TGI [11] was 44.7 µM and the TGI [12] was > 100 µM. The TGI [13] was > 100 µM, the TGI [14] was 61.3 µM and the TGI [15] was > 100 µM. For the same compound, the TGI [16] was > 100 µM, the TGI [17] was > 100 µM and the TGI [18] was > 100 µM. The TGI [19] was > 100 µM, the TGI [20] was > 100 µM and the TGI [21] was > 100 µM. The TGI [22] was > 100 µM, the TGI [23] was 63.5 µM and the TGI [24] was > 100 µM. For the same compound, the TGI [25] was > 100 µM, the TGI [26] was > 100 µM and the TGI [27] was 75.4 µM. For the same compound, the TGI [28] was 67.2 µM, the TGI [29] was 71.7 µM and the TGI [30] was > 100 µM. For the same compound, the TGI [31] was > 100 µM, the TGI [32] was > 100 µM and the TGI [33] was > 100 µM. For the same compound, the TGI [34] was > 100 µM, the TGI [35] was > 100 µM and the TGI [36] was > 100 µM. For the same compound, the TGI [37] was > 100 µM, the TGI [38] was > 100 µM and the TGI [39] was > 100 µM. The TGI [40] was 35.9 µM, the TGI [41] was > 100 µM and the TGI [42] was > 100 µM. For the same compound, the TGI [43] was > 100 µM, the TGI [44] was 39.6 µM and the TGI [45] was > 100 µM. The TGI [46] was > 100 µM, the TGI [47] was > 100 µM and the TGI [48] was 37 µM. The TGI [49] was 51.6 µM, the TGI [50] was > 100 µM and the TGI [51] was 23.1 µM. The TGI [52] was > 100 µM, the TGI [53] was > 100 µM and the TGI [54] was 99.6 µM. For the same compound, the TGI [55] was > 100 µM and the TGI [56] was > 100 µM.
